{"source": "patent US8598114B2", "about": "“Antimicrobial compounds” (priority 2007, dated 2013)", "format_in_all_cases": "cell-based", "key": {"Streptococcus mitis": {"tested_on": "Streptococcus mitis", "experiment": "MIC, CLSI microbroth dilution (aerobic bacteria)", "parameters": "unit not given beside the values", "text": "(§1) Cation-adjusted Mueller-Hinton broth (Oxoid Ltd., Basingstoke, UK and Trek Diagnostic Systems Ltd., East Grinstead, UK) (supplemented with 5% laked horse blood for Streptococcus spp., Corynebacterium jeikeium and Listeria monocytogenes) was used for aerobic bacteria, with an initial inoculum of approximately 10^5 colony-forming units (CFU)/mL."}, "Streptococcus oralis": {"tested_on": "Streptococcus oralis", "experiment": "MIC, CLSI microbroth dilution (aerobic bacteria)", "parameters": "unit not given beside the values", "text": "as §1"}, "Group C Streptococcus": {"tested_on": "Group C Streptococcus", "experiment": "MIC, CLSI microbroth dilution (aerobic bacteria)", "parameters": "unit not given beside the values", "text": "as §1"}, "[1]": {"tested_on": "Stenotrophomonas maltophilia", "experiment": "MIC, CLSI microbroth dilution (aerobic bacteria)", "parameters": "unit not given beside the values", "conditions": "Stenotrophomonas maltophilia - antibiotic-susceptible clinical isolate", "text": "as §1"}, "[2]": {"tested_on": "Streptococcus constellatus", "experiment": "MIC, CLSI microbroth dilution (aerobic bacteria)", "parameters": "unit not given beside the values", "text": "as §1"}, "Streptococcus agalactiae": {"tested_on": "Streptococcus agalactiae", "experiment": "MIC, CLSI microbroth dilution (aerobic bacteria)", "parameters": "unit not given beside the values", "text": "as §1"}, "Salmonella sp": {"tested_on": "Salmonella sp", "experiment": "MIC, CLSI microbroth dilution (aerobic bacteria)", "parameters": "unit not given beside the values", "text": "as §1"}, "Klebsiella aerogenes": {"tested_on": "Klebsiella aerogenes", "experiment": "MIC, CLSI microbroth dilution (aerobic bacteria)", "parameters": "unit not given beside the values", "text": "as §1"}, "Shigella sp": {"tested_on": "Shigella sp", "experiment": "MIC, CLSI microbroth dilution (aerobic bacteria)", "parameters": "unit not given beside the values", "conditions": "Shigella sp - antibiotic-susceptible clinical isolate", "text": "as §1"}, "Streptococcus bovis": {"tested_on": "Streptococcus bovis", "experiment": "MIC, CLSI microbroth dilution (aerobic bacteria)", "parameters": "unit not given beside the values", "text": "as §1"}, "Streptococcus sanguis": {"tested_on": "Streptococcus sanguis", "experiment": "MIC, CLSI microbroth dilution (aerobic bacteria)", "parameters": "unit not given beside the values", "text": "as §1"}, "Streptococcus pyogenes": {"tested_on": "Streptococcus pyogenes", "experiment": "MIC, CLSI microbroth dilution (aerobic bacteria)", "parameters": "unit not given beside the values", "text": "as §1"}, "Moraxella catarrhalis": {"tested_on": "Moraxella catarrhalis", "experiment": "MIC, CLSI microbroth dilution (aerobic bacteria)", "parameters": "unit not given beside the values", "text": "as §1"}, "Listeria monocytogenes": {"tested_on": "Listeria monocytogenes", "experiment": "MIC, CLSI microbroth dilution (aerobic bacteria)", "parameters": "unit not given beside the values", "conditions": "Listeria monocytogenes - antibiotic-susceptible clinical isolate", "text": "as §1"}, "Group G Streptococcus": {"tested_on": "Group G Streptococcus", "experiment": "MIC, CLSI microbroth dilution (aerobic bacteria)", "parameters": "unit not given beside the values", "text": "as §1"}, "[3]": {"tested_on": "Staphylococcus epidermidis", "experiment": "MIC, CLSI microbroth dilution (aerobic bacteria)", "parameters": "unit not given beside the values", "text": "as §1"}, "Morganella morganii": {"tested_on": "Morganella morganii", "experiment": "MIC, CLSI microbroth dilution (aerobic bacteria)", "parameters": "unit not given beside the values", "conditions": "Morganella morganii - multi-drug resistant clinical isolate", "text": "as §1"}, "Enterobacter sp": {"tested_on": "Enterobacter sp", "experiment": "MIC, CLSI microbroth dilution (aerobic bacteria)", "parameters": "unit not given beside the values", "text": "as §1"}, "Streptococcus pneumoniae": {"tested_on": "Streptococcus pneumoniae", "experiment": "MIC, CLSI microbroth dilution (aerobic bacteria)", "parameters": "unit not given beside the values", "text": "as §1"}, "[4]": {"tested_on": "Staphylococcus saprophyticus", "experiment": "MIC, CLSI microbroth dilution (aerobic bacteria)", "parameters": "unit not given beside the values", "conditions": "Staphylococcus saprophyticus - antibiotic susceptible clinical isolate", "text": "as §1"}, "Clostridium perfringens": {"tested_on": "Clostridium perfringens", "conditions": "Clostridium perfringens - antibiotic-susceptible clinical isolate"}, "Corynebacterium jeikeium": {"tested_on": "Corynebacterium jeikeium", "experiment": "MIC, CLSI microbroth dilution (aerobic bacteria)", "text": "as §1"}, "[5]": {"tested_on": "Staphylococcus haemolyticus", "experiment": "MIC, CLSI microbroth dilution (aerobic bacteria)", "conditions": "Staphylococcus haemolyticus - antibiotic susceptible clinical isolate", "text": "as §1"}, "Enterococcus gallinarum": {"tested_on": "Enterococcus gallinarum", "experiment": "MIC, CLSI microbroth dilution (aerobic bacteria)", "conditions": "Enterococcus gallinarum vancomycin-resistant (VanC) clinical isolate", "text": "as §1"}, "Acinetobacter baumanii": {"tested_on": "Acinetobacter baumanii", "experiment": "MIC, CLSI microbroth dilution (aerobic bacteria)", "conditions": "Acinetobacter baumanii - antibiotic-susceptible clinical isolate", "text": "as §1"}, "Enterococcus faecium": {"tested_on": "Enterococcus faecium", "experiment": "MIC, CLSI microbroth dilution (aerobic bacteria)", "text": "as §1"}, "Clostridium difficile": {"tested_on": "Clostridium difficile", "experiment": "MIC, CLSI microbroth dilution (anaerobic bacteria)", "conditions": "Clostridium difficile - antibiotic-susceptible clinical isolate", "method": "M11-A6 Vol. 24 No. 2 Methods for Antimicrobial Susceptibility Testing of Anaerobic Bacteria; Approved Standard-Sixth Edition.\nSupplemented Brucella broth (SBB) was used for the anaerobic strains with an inoculum of approximately 10^6 CFU/mL. SBB is a broth consisting of 1% peptone, 0.5% ‘Lab-lemco’, 1% glucose and 0.5% sodium chloride supplemented with 5 […] vitamin K (both obtained from Sigma Aldrich Ltd.)"}, "Microsporum canis": {"tested_on": "Microsporum canis", "experiment": "MIC, CLSI microbroth dilution (filamentous fungi)", "conditions": "Microsporum canis - G.R. Micro collection", "method": "M38-A Vol. 22 No. 16 Reference Method for Broth Dilution Antifungal Susceptibility Testing of Filamentous Fungi; Approved Standard.\nYeast and filamentous fungal MIC were performed in MOPS buffered RPMI 1640 medium (MOPS buffer obtained from Sigma Aldrich Ltd., RPMI 1640 obtained from Invitrogen Ltd, Paisley, Scotland). The yeast inocula were in the range 7.5×10^2-4×10^3 CFU/mL and the filamentous fungi approximately 8×10^3-1×10^5CFU/mL"}, "Bacteroides fragilis": {"tested_on": "Bacteroides fragilis", "experiment": "MIC, CLSI microbroth dilution (anaerobic bacteria)", "parameters": "unit not given here", "conditions": "Bacteroides fragilis - ATCC 25285, SBB (Table 2)"}}}
{"smiles": "N=C(N)NCCCC(N)C(=O)NC(Cc1ccc(-c2ccc3ccccc3c2)cc1)C(=O)NC(CCCNC(=N)N)C(=O)NCCc1ccccc1", "note": "(centres unmarked) [Compound 1]", "values": [{"measurement": "MIC", "setting": "Streptococcus mitis; Streptococcus mitis - antibiotic-susceptible clinical isolate", "value": 64}, {"measurement": "MIC", "setting": "Streptococcus mitis; Streptococcus mitis - macrolide-resistant clinical isolate", "value": "≧128"}, {"measurement": "MIC", "setting": "Streptococcus oralis; Streptococcus oralis - antibiotic-susceptible clinical isolate", "value": 64}, {"measurement": "MIC", "setting": "Streptococcus oralis; Streptococcus oralis - macrolide-resistant clinical isolate", "value": 32}, {"measurement": "MIC", "setting": "Group C Streptococcus; Group C Streptococcus - antibiotic-susceptible clinical isolate", "value": 32}, {"measurement": "MIC", "setting": "Group C Streptococcus; Group C Streptococcus - macrolide-resistant clinical isolate", "value": 64}, {"measurement": "MIC", "setting": "[1]", "value": 64}, {"measurement": "MIC", "setting": "[2]; Streptococcus constellatus - antibiotic-susceptible clinical isolate", "value": 64}, {"measurement": "MIC", "setting": "[2]; Streptococcus constellatus - macrolide-resistant clinical isolate", "value": 64}, {"measurement": "MIC", "setting": "Streptococcus agalactiae; Streptococcus agalactiae - antibiotic-susceptible clinical isolate", "value": 16}, {"measurement": "MIC", "setting": "Streptococcus agalactiae; Streptococcus agalactiae - macrolide-resistant clinical isolate", "value": 32}, {"measurement": "MIC", "setting": "Salmonella sp; Salmonella sp - antibiotic-susceptible clinical isolate", "value": 16}, {"measurement": "MIC", "setting": "Salmonella sp; Salmonella sp - multi-drug resistant clinical isolate", "value": 16}, {"measurement": "MIC", "setting": "Klebsiella aerogenes; Klebsiella aerogenes - multi-drug resistant clinical isolate", "value": 64}, {"measurement": "MIC", "setting": "Klebsiella aerogenes; Klebsiella aerogenes NCTC11228 - antibiotic-susceptible type strain", "value": 32}, {"measurement": "MIC", "setting": "Shigella sp", "value": 32}, {"measurement": "MIC", "setting": "Streptococcus bovis; Streptococcus bovis - antibiotic-susceptible clinical isolate", "value": 64}, {"measurement": "MIC", "setting": "Streptococcus bovis; Streptococcus bovis - macrolide-resistant clinical isolate", "value": 8}, {"measurement": "MIC", "setting": "Streptococcus sanguis; Streptococcus sanguis - antibiotic-susceptible clinical isolate", "value": 64}, {"measurement": "MIC", "setting": "Streptococcus sanguis; Streptococcus sanguis - macrolide-resistant clinical isolate", "value": 32}, {"measurement": "MIC", "setting": "Streptococcus pyogenes; Streptococcus pyogenes - Macrolide (M-type) resistance clinical isolate", "value": 32}, {"measurement": "MIC", "setting": "Streptococcus pyogenes; Streptococcus pyogenes - Macrolide (MLS) resistant clinical isolate", "value": 32}, {"measurement": "MIC", "setting": "Moraxella catarrhalis; Moraxella catarrhalis - reduced fluoroquinolone susceptibility clinical", "value": 8}, {"measurement": "MIC", "setting": "Moraxella catarrhalis; Moraxella catarrhalis - β-lactamase positive clinical isolate", "value": 4}, {"measurement": "MIC", "setting": "Listeria monocytogenes", "value": 32}, {"measurement": "MIC", "setting": "Group G Streptococcus; Group G Streptococcus - antibiotic-susceptible clinical isolate", "value": 32}, {"measurement": "MIC", "setting": "Group G Streptococcus; Group G Streptococcus - macrolide-resistant clinical isolate", "value": 32}, {"measurement": "MIC", "setting": "[3]; Staphylococcus epidermidis antibiotic susceptible clinical isolate", "value": 16}, {"measurement": "MIC", "setting": "[3]; Staphylococcus epidermidis methicillin-resistant clinical isolate", "value": 2}, {"measurement": "MIC", "setting": "Morganella morganii", "value": "≧128"}, {"measurement": "MIC", "setting": "Enterobacter sp; Enterobacter sp - antibiotic-susceptible clinical isolate", "value": 32}, {"measurement": "MIC", "setting": "Enterobacter sp; Enterobacter sp - multi-drug resistant clinical isolate", "value": 64}, {"measurement": "MIC", "setting": "Streptococcus pneumoniae; Streptococcus pneumoniae - ATCC 49619 antibiotic-susceptible control", "value": 32}, {"measurement": "MIC", "setting": "Streptococcus pneumoniae; Streptococcus pneumoniae - multi-drug resistant clinical isolate", "value": 64}, {"measurement": "MIC", "setting": "Streptococcus pneumoniae; Streptococcus pneumoniae - penicillin-resistant clinical isolate", "value": 32}, {"measurement": "MIC", "setting": "Streptococcus pneumoniae; Streptococcus pneumoniae - penicillin-susceptible clinical isolate", "value": 64}, {"measurement": "MIC", "setting": "Streptococcus pneumoniae; Streptococcus pneumoniae -penicillin-intermediate clinical isolate", "value": 32}, {"measurement": "MIC", "setting": "[4]", "value": 1}, {"measurement": "MIC", "setting": "Clostridium perfringens", "value": "≧128"}, {"measurement": "MIC", "setting": "Corynebacterium jeikeium; Corynebacterium jeikeium - antibiotic-susceptible clinical isolate", "value": 32}, {"measurement": "MIC", "setting": "Corynebacterium jeikeium; Corynebacterium jeikeium - multi-drug resistant clinical isolate", "value": 32}, {"measurement": "MIC", "setting": "[5]", "value": 4}, {"measurement": "MIC", "setting": "Enterococcus gallinarum", "value": 4}, {"measurement": "MIC", "setting": "Acinetobacter baumanii", "value": 64}, {"measurement": "MIC", "setting": "Enterococcus faecium; Enterococcus faecium vancomycin-resistant (VanA) clinical isolate", "value": 16}, {"measurement": "MIC", "setting": "Enterococcus faecium; Enterococcus faecium vancomycin-resistant (VanB) clinical isolate", "value": 8}, {"measurement": "MIC", "setting": "Enterococcus faecium; Enterococcus faecium vancomycin-susceptible clinical isolate", "value": 8}, {"measurement": "MIC", "setting": "Clostridium difficile", "value": 32}, {"measurement": "MIC", "setting": "Microsporum canis", "value": 8}, {"measurement": "MIC", "setting": "Bacteroides fragilis", "value": 64}]}
